Assay results from patent US8765719B2, “Therapeutic drug for adult T-cell leukemia” (Kagoshima University, priority 2008, dated 2014).
Where two headings read alike, the source gives them in different places.

Tests used:
Assay type in all cases: cell-based
[1] = test system: S1T (cell strain originated from an ATL patient); assay: Growth inhibition of S1T cells, 4-day culture, MTT method; conditions: for IC50: S1T cells, 4 days; for Selectivity to ATL cell (S1T) in words: S1T versus MOLT-4; for Selectivity index on the S1T cell (SI = IC50 for MOLT-4/IC50 for S1T): screen with S1T and MOLT-4
Description: (§1) In the presence of various agents, S1T (cell strain originated from an ATL patient), MT-2 (HTLV-1 infected cell strain), and as controls, MOLT-4 (acute lymphoblastic leukemia cell strain), CEM (acute lymphoblastic leukemia cell strain), HL-60 (acute promyelocytic leukemia cell strain), and Jurkat (acute T-cell leukemia cell strain) were cultivated for 4 days, and the growth inhibitory effects of compounds on the respective cells were evaluated by the MIT method.
(§2) In the presence of various concentrations of agents, SIT (cell strain originated from an ATL patient) and as a control MOLT-4 (acute lymphoblastic leukemia cell strain) were cultivated for 4 days, and the growth inhibitory effects of the compounds on the respective cells were evaluated by the MTT method.

[2] = test system: MOLT-4 (acute lymphoblastic leukemia cell strain); assay: Growth inhibition of MOLT-4 control cells, 4-day culture, MTT method; conditions: MOLT-4 cells, 4 days
Description: as §1, §2

[3] = test system: HL-60 (acute promyelocytic leukemia cell strain); assay: Growth inhibition of HL-60 control cells, 4-day culture; conditions: HL-60 cells, 4 days
Description: as §1, with “S1T” left out

[4] = test system: Jurkat (acute T-cell leukemia cell strain); assay: Growth inhibition of Jurkat control cells, 4-day culture; conditions: 4 days
Description: as §1, with “S1T” left out

[5] = test system: MT-2 (HTLV-1 infected cell strain); assay: Growth inhibition of MT-2 cells, 4-day culture; conditions: 4 days
Description: as §1, with “S1T” left out

[6] = test system: CEM (acute lymphoblastic leukemia cell strain); assay: Growth inhibition of CEM control cells, 4-day culture; conditions: 4 days
Description: as §1, with “S1T” left out

[7] = Homo sapiens, 96 h, Table 2, MTT, mean of at least 2 experiments, read-out: IC50 (μM) S1T cell
[8] = Table 2, selectivity to ATL cell (IC50 for MOLT-4/IC50 for S1T)
[9] = Homo sapiens, 96 h, Table 2, MTT, mean of at least 2 experiments, read-out: IC50 (μM) MOLT-4 cell
[10] = Table 2, MTT, mean of at least 2 experiments, read-out: IC50 (μM) S1T cell
[11] = Table 2, MTT, mean of at least 2 experiments, read-out: IC50 (μM) MOLT-4 cell
[12] = Homo sapiens, 96 h, Table 1, concentration to inhibit cell growth by 50%, read-out: IC50 (μM) S1T
[13] = Table 1, selectivity index = IC50 for MOLT-4/IC50 for S1T
[14] = Homo sapiens, 96 h, Table 1, concentration to inhibit cell growth by 50%, read-out: IC50 (μM) MOLT-4

Row | Compound | IC50 [1, 7] [µM] | SI [1, 8] | IC50 [2, 9] [µM] | IC50 [1, 12] [µM] | SI [1, 13] | IC50 [2, 14] [µM] | also measured
1 | CC1(C)CCC(C)(C)c2cc3c(cc21)OCCC3=O [Agent O, 2,3,6,7,8,9-hexahydro-6,6,9,9-tetramethyl-4H-naphtho[2,3-b]pyran-4-one] | 6.7 ± 0.9 | 2.0 | 13.6 ± 2.6 |  |  |  | 
2 | CC(C)C(=O)c1ccc2c(c1)C(C)(C)CCC2(C)C [Agent F, 5,6,7,8-tetrahydro-5,5,8,8-tetramethyl-2-naphthyl isopropyl ketone] | 3.8 ± 2.1 | 9.1 | 34.6 ± 1.5 |  |  |  | 
3 | CC(=S)c1cc2c(cc1O)C(C)(C)CCC2(C)C [Agent G, 5,6,7,8-tetrahydro-3-hydroxy-5,5,8,8-tetramethyl-2-naphthyl ethanethione] |  | 5.3 |  |  |  |  | IC50 [1, 10]: 6.9 ± 2.3 µM; IC50 [2, 11]: 36.4 ± 2.1 µM
4 | CCC(=O)c1cc2c(cc1O)C(C)(C)CCC2(C)C [Agent A, 5,6,7,8-tetrahydro-3-hydroxy-5,5,8,8-tetramethyl-2-naphthyl ethyl ketone] | 4.7 ± 1.3 | 6.9 | 32.3 ± 5.4 |  |  |  | 
5 | CC(=O)c1cc2c(cc1O)C(C)(C)CCC2(C)C [TMNAA, 5,6,7,8-tetrahydro-3-hydroxy-5,5,8,8-tetramethyl-2-naphthyl methyl ketone] |  |  |  | 5 | 10.8 | 53.8 | Growth inhibitory effect on HL-60 [3]: specific inhibitory effect solely on MT-2; Growth inhibitory effect on Jurkat [4]: specific inhibitory effect solely on MT-2; Concentration at which growth of an ATL cell is selectively inhibited in comparison to the control ([1]; FIG. 1): ≥ 4 µM; Selectivity to ATL cell (S1T) in words [1]: higher selectivity to an ATL cell than other derivatives with analogous structures; Selectivity index on the S1T cell (SI = IC50 for MOLT-4/IC50 for S1T) [1]: ≥ 10; Selectivity index on the S1T cell (SI = IC50 for MOLT-4/IC50 for S1T) ([1]; listed as compound of the formula III): above 10; Growth inhibitory effect on MT-2 [5]: specific inhibitory effect solely on MT-2; Growth inhibitory effect on CEM [6]: specific inhibitory effect solely on MT-2
6 | CC(=O)c1ccc2c(c1)C(C)(C)CCC2(C)C [TMN(COCH3), 5,6,7,8-tetrahydro-5,5,8,8-tetramethyl-2-naphthyl methyl ketone] |  |  |  | 6.9 | 9.6 | 66 | Selectivity to ATL cell (S1T) in words [1]: higher selectivity to an ATL cell than other derivatives with analogous structures
7 | CC(C)(C)C(=O)c1cc2c(cc1O)C(C)(C)CCC2(C)C [Agent C, 5,6,7,8-tetrahydro-3-hydroxy-5,5,8,8-tetramethyl-2-naphthyl tert-butyl ketone] | 41.5 ± 0.8 | 1.0 | 43.2 ± 2.4 |  |  |  | 
8 | CC(C)C(=O)c1cc2c(cc1O)C(C)(C)CCC2(C)C [Agent B, 5,6,7,8-tetrahydro-3-hydroxy-5,5,8,8-tetramethyl-2-naphthyl isopropyl ketone] | 6 ± 0.7 | 5.3 | 31.9 ± 0.2 |  |  |  | 
9 | CC1(C)CCC(C)(C)c2cc(C(=O)O)ccc21 [TMBA, reference compound] |  |  |  | > 100 | <0.61 | 61.1 | 
10 | CN(C)C=CC(=O)c1cc2c(cc1O)C(C)(C)CCC2(C)C [Agent M, 5,6,7,8-tetrahydro-3-hydroxy-5,5,8,8-tetramethyl-2-naphthyl 13-(N,N-dimethylamino)vinyl ketone] |  | 4.4 |  |  |  |  | IC50 [1, 10]: 2.1 ± 0.1 µM; IC50 [2, 11]: 9.3 ± 0.9 µM
11 | CC1(C)CCC(C)(C)c2cc(C(=O)O)c(O)cc21 [TNBAA, reference compound] |  |  |  | 29.7 | 1.49 | 44.4 | 
12 | CC1(C)CCC(C)(C)c2cc(C(=O)c3ccccc3)ccc21 [Agent H, 5,6,7,8-tetrahydro-5,5,8,8-tetramethyl-2-naphthyl phenyl ketone] | 7 ± 0.9 | 1.7 | 11.8 ± 2.2 |  |  |  | 
13 | COc1cc2c(cc1C(C)=O)C(C)(C)CCC2(C)C [TMN(OCH3) (COCH3)] |  |  |  | 7 | 1.7 | 11.9 | Selectivity to ATL cell (S1T) in words [1]: higher selectivity to an ATL cell than other derivatives with analogous structures
14 | O=C([O-])c1ccccc1O.[Na+] [Sodium salicylate, reference compound] |  |  |  | 1570 | 0.84 | 1320 | Selectivity to ATL cell (S1T) in words [1]: no selectivity to S1T was recognized
15 | CON(C)C(=O)c1ccc2c(c1)C(C)(C)CCC2(C)C [Agent J, 5,6,7,8-tetrahydro-5,5,8,8-tetramethyl-2-naphthyl-N-methoxy-N-methylamide] |  | <1.0 |  |  |  |  | IC50 [1, 10]: 12.6 ± 2.1 µM; IC50 [2, 11]: 9.9 µM
16 | CC1(C)CCC(C)(C)c2cc(C(N)=O)ccc21 [Agent K, 5,6,7,8-tetrahydro-5,5,8,8-tetramethyl-2-naphthyl amide] |  | 1.1 |  |  |  |  | IC50 [1, 10]: 37 ± 2.1 µM; IC50 [2, 11]: 39.4 ± 10.4 µM
17 | CC1(C)CCC(C)(C)c2cc3c(=O)ccoc3cc21 [Agent N, 6,7,8,9-tetrahydro-6,6,9,9-tetramethyl-4H-naphtho[2,3-b]pyran-4-one] | 1.9 ± 0.2 | 7.6 | 14.5 ± 1.9 |  |  |  | 
18 | CC1(C)CCC(C)(C)c2ccccc21 [TMN, reference compound] |  |  |  | > 100 |  | > 100 | 
19 | CCC(=O)c1ccc2c(c1)C(C)(C)CCC2(C)C [Agent E, 5,6,7,8-tetrahydro-5,5,8,8-tetramethyl-2-naphthyl ethyl ketone] | 3.3 ± 1 | 6.5 | 21.5 ± 2.2 |  |  |  | 
20 | CC1(C)CCC(C)(C)c2cc(C(=O)c3ccccc3)c(O)cc21 [Agent D, 5,6,7,8-tetrahydro-3-hydroxy-5,5,8,8-tetramethyl-2-naphthyl phenyl ketone] | 15.2 ± 2.3 | 1.9 | 28.3 ± 0.7 |  |  |  | 
